How the values were obtained:
[1] = system: Staphylococcus aureus 6538; assay: High resolution minimum inhibitory concentration (HRMIC) test, Gram-positive bacterium; assay type: cell-based; details: for Activity against Gram-positive test organism (in words): HRMIC test; for MIC: M9GY, 10^6 CFU/ml, 30° C., 24 hours, read-out: MIC (ppm) Average, Gram-positive
Protocol: (§1) The five alkylation products from Route B, as described in Table 1, were tested for their ability to inhibit the growth of a Gram-positive bacterium, Staphylococcus aureus 6538 and a Gram-negative bacterium, Pseudomonas aeruginosa 13388 in a high resolution minimum inhibitory concentration (HRMIC) test. Two of the compounds showing biological activity were also tested for activity against sulfate-reducing bacteria (SRB). HR MIC Test Method: Varying amounts of test compound dissolved in DMSO were added to […] in a 96-well microtiter plate. Ten-fold serial dilutions were performed on a Biomek 2000 Workstation to obtain a range of closely spaced concentrations of biocide as illustrated in Table 2. A cell suspension of either Pseudomonas aeruginosa 13388 or Staphylococcus aureus 6538, adjusted to provide 10^6 CFU/ml in each well, was added to each microtiter plate. Kathon® WT biocide and Hyamine® 3500 biocide (dimethyl benzyl ammonium chloride) were included in the test for comparison. The microtiter plates were incubated at 30° C. for 24 hours and were then checked for the presence or absence of microbial growth in each well. […] Each compound was evaluated in duplicate on three separate days. [table]

[2] = system: Pseudomonas aeruginosa 13388; assay: High resolution minimum inhibitory concentration (HRMIC) test, Gram-negative bacterium; assay type: cell-based; details: for Activity against Gram-negative test organism (in words): HRMIC test; for MIC: M9GY, 10^6 CFU/ml, 30° C., 24 hours, read-out: MIC (ppm) Average, Gram-negative
Protocol: as §1

MIC [1] [µg/mL] | MIC [2] [µg/mL] | SMILES | Activity against Gram-positive test organism (in words) [1] | Activity against Gram-negative test organism (in words) [2]
> 1000 | > 1000 | CC(C)(C)CC(C)(C)[N+](C)(C)C.[Br-] [TOA Br^−, N,N,N-Trimethyl t-octyl ammonium bromide] | showed no activity | showed no activity
> 1000 | > 1000 | CC(C)(C)CC(C)(C)[N+](C)(C)C.[I-] [TOA I^−, N,N,N-Trimethyl t-octylammonium iodide] | showed no activity | showed no activity

— patent publication US6727387B2, “Quaternary ammonium salts having a tertiary alkyl group” (Rohm and Haas Company, priority 2001, dated 2004)
